Measured values: ChEMBL document CHEMBL2029229, “Structure-activity relationship of a series of non peptidic RGD integrin antagonists targeting α5β1: part 1” (Bioorg Med Chem Lett, 2012)

Experiments:
[1] = Dissociation constant, pKa of the compound; format: physicochemical
Integrin alpha-V/beta-3 = Integrin alpha-V/beta-3 (Homo sapiens, UniProt P05106+P06756); experiment: Antagonist activity at integrin alphavbeta3 in human A375M cells assessed as inhibition of cell adhesion to fibrinogen in presence of Mg2+; format: functional, cell-based
A375M = experiment: Selectivity ratio of IC50 for integrin alphavbeta3alpha5beta1-mediated human A375M cells adhesion to fibronectin in absence of MK-0429 to IC50 for integrin alpha5beta1-mediated human A375M cells adhesion to fibronectin in presence of MK-0429; format: cell-based
Integrin alpha-5/beta-1 [2] = target: T1, Integrin alpha-5/beta-1 (Homo sapiens, UniProt P05556+P08648); experiment: Binding affinity to integrin alpha5beta1; format: protein-complex assay
Integrin alpha-5/beta-1 [3] = target: T1, Integrin alpha-5/beta-1; experiment: Antagonist activity at integrin alpha5beta1 in human K562 cells assessed as inhibition of cell adhesion; format: functional, cell-based
[4] = Fraction unbound in rat plasma; format: ADME, cell-free
Integrin alpha-5/beta-1 [5] = target: T1, Integrin alpha-5/beta-1; experiment: Antagonist activity at integrin alpha5beta1 in human K562 cells assessed as inhibition of cell adhesion in presence of 630 uM human serum albumin; format: functional, cell-based
[6] = target: Integrin alpha-IIb/beta-3 (Homo sapiens, UniProt P05106+P08514); experiment: Inhibition of integrin alpha2b beta3; format: protein-complex assay
[7] = target: Fibronectin receptor (Integrin alpha-5/beta-1 and alpha-V/beta-3) (Homo sapiens, UniProt P05106+P05556+P06756+P08648); experiment: Antagonist activity at integrin alphavbeta3alpha5beta1 in human A375M cells assessed as inhibition of cell adhesion to fibronectin in presence of Mg2+; format: functional, cell-based
Integrin alpha-5/beta-1 [8] = target: T1, Integrin alpha-5/beta-1; experiment: Antagonist activity at integrin alpha5beta1 in human A375M cells assessed as inhibition of cell adhesion to fibronectin in presence of Mg2+ and MK-0429; format: functional, cell-based

T1 sequence (P05556 21-798 limits assumed): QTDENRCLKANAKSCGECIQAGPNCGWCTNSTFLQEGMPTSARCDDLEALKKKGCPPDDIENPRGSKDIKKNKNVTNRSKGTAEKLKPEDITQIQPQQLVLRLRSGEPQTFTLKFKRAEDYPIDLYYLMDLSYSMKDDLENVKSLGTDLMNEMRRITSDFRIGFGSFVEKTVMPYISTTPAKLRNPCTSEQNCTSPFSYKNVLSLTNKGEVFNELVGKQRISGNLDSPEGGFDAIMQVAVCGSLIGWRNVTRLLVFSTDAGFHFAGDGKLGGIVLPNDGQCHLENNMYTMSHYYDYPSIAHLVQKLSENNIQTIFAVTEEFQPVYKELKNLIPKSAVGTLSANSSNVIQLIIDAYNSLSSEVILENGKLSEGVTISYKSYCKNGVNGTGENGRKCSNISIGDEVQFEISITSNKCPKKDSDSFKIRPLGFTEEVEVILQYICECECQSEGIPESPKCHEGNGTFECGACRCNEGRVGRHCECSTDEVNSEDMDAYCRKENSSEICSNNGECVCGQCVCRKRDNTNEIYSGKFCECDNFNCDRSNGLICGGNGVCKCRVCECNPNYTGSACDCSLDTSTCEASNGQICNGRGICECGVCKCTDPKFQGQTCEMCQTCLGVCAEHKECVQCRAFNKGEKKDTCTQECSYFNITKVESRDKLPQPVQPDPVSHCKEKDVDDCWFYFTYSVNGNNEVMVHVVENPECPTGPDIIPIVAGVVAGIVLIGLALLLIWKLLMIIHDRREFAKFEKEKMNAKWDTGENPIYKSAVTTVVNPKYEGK
T1 sequence (P08648 42-894 limits assumed): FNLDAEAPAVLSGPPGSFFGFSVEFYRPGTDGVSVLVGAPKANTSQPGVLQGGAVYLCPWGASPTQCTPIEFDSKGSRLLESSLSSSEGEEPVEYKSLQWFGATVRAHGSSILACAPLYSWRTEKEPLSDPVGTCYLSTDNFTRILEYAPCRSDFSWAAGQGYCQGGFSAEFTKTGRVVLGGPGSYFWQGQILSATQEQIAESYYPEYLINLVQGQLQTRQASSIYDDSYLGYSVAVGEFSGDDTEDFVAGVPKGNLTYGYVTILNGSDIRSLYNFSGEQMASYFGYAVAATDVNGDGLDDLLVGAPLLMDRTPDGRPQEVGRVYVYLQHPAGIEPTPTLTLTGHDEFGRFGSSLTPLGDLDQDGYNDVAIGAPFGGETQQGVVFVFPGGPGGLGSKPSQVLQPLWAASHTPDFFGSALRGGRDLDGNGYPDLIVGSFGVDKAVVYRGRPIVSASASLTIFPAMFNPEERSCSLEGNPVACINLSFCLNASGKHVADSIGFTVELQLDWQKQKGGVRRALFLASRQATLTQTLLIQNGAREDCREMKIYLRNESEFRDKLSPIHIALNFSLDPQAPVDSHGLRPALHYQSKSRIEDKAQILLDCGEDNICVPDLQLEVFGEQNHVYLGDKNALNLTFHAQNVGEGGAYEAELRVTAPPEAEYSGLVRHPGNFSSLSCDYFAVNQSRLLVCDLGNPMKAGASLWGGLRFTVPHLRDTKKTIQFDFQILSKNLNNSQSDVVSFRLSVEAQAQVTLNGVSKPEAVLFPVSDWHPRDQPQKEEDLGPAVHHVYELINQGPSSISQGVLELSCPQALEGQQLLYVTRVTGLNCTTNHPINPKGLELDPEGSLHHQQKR
T1 sequence (P08648 895-1049 limits assumed): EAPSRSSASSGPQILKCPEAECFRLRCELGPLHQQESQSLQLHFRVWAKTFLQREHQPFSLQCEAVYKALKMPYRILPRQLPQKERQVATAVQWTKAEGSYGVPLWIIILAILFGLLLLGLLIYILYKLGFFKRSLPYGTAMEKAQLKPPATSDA
Chain of Integrin alpha-IIb/beta-3 (P05106 27-788 limits assumed): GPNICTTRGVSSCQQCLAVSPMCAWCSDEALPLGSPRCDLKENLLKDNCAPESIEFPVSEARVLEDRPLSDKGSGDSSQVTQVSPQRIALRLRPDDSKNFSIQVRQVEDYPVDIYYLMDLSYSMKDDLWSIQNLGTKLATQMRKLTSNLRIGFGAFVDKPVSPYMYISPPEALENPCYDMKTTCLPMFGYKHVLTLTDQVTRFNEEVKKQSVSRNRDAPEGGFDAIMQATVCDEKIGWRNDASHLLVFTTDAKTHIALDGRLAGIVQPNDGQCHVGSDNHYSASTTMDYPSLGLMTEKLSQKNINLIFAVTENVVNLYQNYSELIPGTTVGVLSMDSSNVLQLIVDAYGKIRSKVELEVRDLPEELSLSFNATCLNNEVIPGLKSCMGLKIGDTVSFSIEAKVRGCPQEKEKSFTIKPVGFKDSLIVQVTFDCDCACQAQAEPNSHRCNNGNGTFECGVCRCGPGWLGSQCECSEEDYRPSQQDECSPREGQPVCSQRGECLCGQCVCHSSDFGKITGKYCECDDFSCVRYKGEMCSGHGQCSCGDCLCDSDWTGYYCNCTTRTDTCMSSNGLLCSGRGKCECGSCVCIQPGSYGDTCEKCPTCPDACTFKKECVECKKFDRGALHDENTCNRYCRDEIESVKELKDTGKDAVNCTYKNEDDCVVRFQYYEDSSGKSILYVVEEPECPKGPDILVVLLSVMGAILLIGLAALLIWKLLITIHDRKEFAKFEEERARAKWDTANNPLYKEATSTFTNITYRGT
Chain of Integrin alpha-IIb/beta-3 (P08514 32-887 limits assumed): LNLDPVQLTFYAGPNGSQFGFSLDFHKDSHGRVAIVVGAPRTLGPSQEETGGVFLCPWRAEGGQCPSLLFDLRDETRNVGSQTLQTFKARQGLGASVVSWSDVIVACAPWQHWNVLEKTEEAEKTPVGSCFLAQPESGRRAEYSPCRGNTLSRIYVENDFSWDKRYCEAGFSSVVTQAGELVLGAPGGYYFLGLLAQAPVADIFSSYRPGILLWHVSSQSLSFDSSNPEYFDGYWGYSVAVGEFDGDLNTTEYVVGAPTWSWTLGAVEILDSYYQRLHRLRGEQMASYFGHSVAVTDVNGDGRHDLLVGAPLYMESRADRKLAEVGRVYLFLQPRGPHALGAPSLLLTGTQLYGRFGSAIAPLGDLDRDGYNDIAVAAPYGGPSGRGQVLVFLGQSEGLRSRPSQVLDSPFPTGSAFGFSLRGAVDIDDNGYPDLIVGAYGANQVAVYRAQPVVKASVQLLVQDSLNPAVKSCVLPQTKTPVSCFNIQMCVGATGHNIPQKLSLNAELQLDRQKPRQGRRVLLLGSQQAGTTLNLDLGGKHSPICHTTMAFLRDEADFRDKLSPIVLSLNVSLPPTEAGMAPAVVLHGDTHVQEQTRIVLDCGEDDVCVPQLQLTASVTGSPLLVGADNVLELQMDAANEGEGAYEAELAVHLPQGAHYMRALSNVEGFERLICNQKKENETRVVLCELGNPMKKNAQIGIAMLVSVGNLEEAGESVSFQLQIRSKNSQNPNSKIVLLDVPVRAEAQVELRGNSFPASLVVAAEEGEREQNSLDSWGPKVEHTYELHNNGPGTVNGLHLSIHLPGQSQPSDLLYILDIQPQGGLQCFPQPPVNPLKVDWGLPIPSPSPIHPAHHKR
Chain of Integrin alpha-IIb/beta-3 (P08514 891-1039 limits assumed): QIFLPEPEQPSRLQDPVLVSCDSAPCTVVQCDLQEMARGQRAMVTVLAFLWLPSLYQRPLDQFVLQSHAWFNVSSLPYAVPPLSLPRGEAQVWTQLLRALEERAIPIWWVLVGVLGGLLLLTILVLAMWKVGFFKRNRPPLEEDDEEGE
Chain of Integrin alpha-V/beta-3 (P05106 27-788 limits assumed): as the sequence (P05106 27-788 limits assumed) above
Chain of Integrin alpha-V/beta-3 (P06756 31-889 limits assumed): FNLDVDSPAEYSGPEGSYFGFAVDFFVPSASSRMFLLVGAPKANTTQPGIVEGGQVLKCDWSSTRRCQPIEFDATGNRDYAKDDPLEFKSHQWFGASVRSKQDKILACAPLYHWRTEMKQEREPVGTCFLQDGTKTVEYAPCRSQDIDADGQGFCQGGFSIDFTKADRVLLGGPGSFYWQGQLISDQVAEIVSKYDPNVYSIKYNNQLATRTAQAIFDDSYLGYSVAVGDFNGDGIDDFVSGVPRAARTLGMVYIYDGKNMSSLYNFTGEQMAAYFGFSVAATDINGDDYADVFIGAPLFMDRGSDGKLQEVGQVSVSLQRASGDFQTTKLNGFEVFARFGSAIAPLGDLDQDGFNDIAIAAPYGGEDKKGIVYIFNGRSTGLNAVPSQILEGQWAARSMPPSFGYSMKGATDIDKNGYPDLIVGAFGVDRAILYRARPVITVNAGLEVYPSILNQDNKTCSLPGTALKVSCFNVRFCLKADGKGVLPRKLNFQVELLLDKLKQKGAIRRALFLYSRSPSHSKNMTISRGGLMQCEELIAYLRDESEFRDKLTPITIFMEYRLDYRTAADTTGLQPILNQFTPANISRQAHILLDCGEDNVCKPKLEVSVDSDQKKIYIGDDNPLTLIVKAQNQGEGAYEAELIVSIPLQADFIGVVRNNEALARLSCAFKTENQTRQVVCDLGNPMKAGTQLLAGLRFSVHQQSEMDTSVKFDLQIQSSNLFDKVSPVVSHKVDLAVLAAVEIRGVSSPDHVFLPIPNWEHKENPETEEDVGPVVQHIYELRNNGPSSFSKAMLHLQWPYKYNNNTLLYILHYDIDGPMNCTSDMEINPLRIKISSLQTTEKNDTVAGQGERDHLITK
Chain of Integrin alpha-V/beta-3 (P06756 891-1048 limits assumed): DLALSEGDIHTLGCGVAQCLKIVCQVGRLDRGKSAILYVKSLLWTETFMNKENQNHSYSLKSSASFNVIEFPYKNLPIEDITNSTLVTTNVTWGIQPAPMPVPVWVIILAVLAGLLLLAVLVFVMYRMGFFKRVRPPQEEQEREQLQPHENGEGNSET

Compound	pKa [1]	IC50 (Integrin alpha-V/beta-3) [nM]	Ratio IC50 (A375M)	IC50 (Integrin alpha-5/beta-1 [2]) [nM]	IC50 (Integrin alpha-5/beta-1 [3]) [nM]	fraction unbound [4]	IC50 (Integrin alpha-5/beta-1 [5]) [nM]	IC50 [6] [nM]	IC50 [7] [nM]	IC50 (Integrin alpha-5/beta-1 [8]) [nM]
CNc1cccc(CCOc2ccc(C[C@H](NC(=O)c3c(Cl)cccc3Cl)C(=O)O)cc2)n1	7	7	2.4	–	–	–	–	–	–	–
CN1CCNc2nc(CCOc3ccc(C[C@H](NC(=O)c4c(Cl)cccc4Cl)C(=O)O)cc3)ccc21	7.1	23	1.6	1	< 8	0.015	< 56	> 10000	250	150
O=C(N[C@@H](Cc1ccc(CCCc2ccc3c(n2)NCCC3)cc1)C(=O)O)c1c(Cl)cccc1Cl	–	–	–	< 1	< 8	0.006	450	> 10000	–	–
O=C(N[C@@H](Cc1ccc(C#CCCNc2ccccn2)cc1)C(=O)O)c1c(Cl)cccc1Cl	6.7	–	–	69	2100	–	–	–	–	–
O=C(N[C@@H](Cc1ccc(OCCc2cccc(NCC3CC3)n2)cc1)C(=O)O)c1c(Cl)cccc1Cl	–	–	–	3	< 41	–	–	–	–	–
O=C(N[C@@H](Cc1ccc(OCCc2ccc3c(n2)NCCO3)cc1)C(=O)O)c1c(Cl)cccc1Cl	6	17	2.1	1	10	–	–	–	270	130
CN(C)c1cccc(CCOc2ccc(C[C@H](NC(=O)c3c(Cl)cccc3Cl)C(=O)O)cc2)n1	–	–	–	140	2700	–	–	–	–	–
Cc1cc(C)c(C(=O)N[C@@H](CNC(=O)CO[C@@H]2C[C@@H](CNc3ccccn3)N(C(=O)OCc3ccccc3)C2)C(=O)O)c(C)c1	–	1200	15	–	586	–	–	–	3200	200
O=C(N[C@@H](Cc1ccc(OCCNc2ccccn2)cc1)C(=O)O)c1c(Cl)cccc1Cl	6.7	–	–	–	–	–	–	–	–	–
O=C(N[C@@H](Cc1ccc(OCCc2cccc(NC3CCCC3)n2)cc1)C(=O)O)c1c(Cl)cccc1Cl	6.8	–	–	83	320	–	–	–	–	–
CNc1cccc(COCc2ccc(C[C@H](NC(=O)c3c(Cl)cccc3Cl)C(=O)O)cc2)n1	6.4	–	–	220	1400	–	–	–	–	–
NC(=O)NCCCOc1ccc(C[C@H](NC(=O)c2c(Cl)cccc2Cl)C(=O)O)cc1	–	–	–	150	10000	–	–	–	–	–
Nc1cccc(CCOc2ccc(C[C@H](NC(=O)c3c(Cl)cccc3Cl)C(=O)O)cc2)n1	–	–	–	< 1	9	–	–	–	–	–
O=C(Cc1ccc2c(n1)NCCC2)Nc1ccc(C[C@H](NC(=O)c2c(Cl)cccc2Cl)C(=O)O)cc1	–	49	4	3	84	–	–	–	860	210
O=C(N[C@@H](Cc1ccc(OCCNc2nc3ccccc3s2)cc1)C(=O)O)c1c(Cl)cccc1Cl	4.3	–	–	970	2400	–	–	–	–	–
O=C(N[C@@H](Cc1ccc(CCCCNc2ccccn2)cc1)C(=O)O)c1c(Cl)cccc1Cl	7.2	–	–	24	1100	–	–	–	–	–
O=C(N[C@@H](Cc1ccc(OCCc2ccc3c(n2)NCCC3)cc1)C(=O)O)c1c(Cl)cccc1Cl	7.6	1	4.5	< 1	< 3	0.007	29	> 10000	9	–
CN1CC(CCCOc2ccc(C[C@H](NC(=O)c3c(Cl)cccc3Cl)C(=O)O)cc2)C1	–	–	–	360	58000	–	–	–	–	–
O=C(NCc1ccc2c(n1)NCCC2)c1ccc(C[C@H](NC(=O)c2c(Cl)cccc2Cl)C(=O)O)cc1	6.8	350	5.9	5	120	–	–	–	8400	1400
O=C(N[C@@H](Cc1ccc(OCCCCNc2ccccn2)cc1)C(=O)O)c1c(Cl)cccc1Cl	–	–	–	54	710	–	–	–	–	–
O=C(N[C@@H](Cc1ccc(OCCCNc2ccccn2)cc1)C(=O)O)c1c(Cl)cccc1Cl	7.1	84	4	–	–	–	–	–	–	–
O=C(N[C@@H](Cc1ccc(OCCNc2nc3ccccc3[nH]2)cc1)C(=O)O)c1c(Cl)cccc1Cl	7.2	–	–	8	160	–	–	–	–	–
CNc1cccc(CCCc2ccc(C[C@H](NC(=O)c3c(Cl)cccc3Cl)C(=O)O)cc2)n1	7.6	–	–	–	–	–	–	–	–	–
